Consider 65 compounds from PubChem BioAssay AID2005 (Sanford-Burnham Center for Chemical Genomics, 2009).

Active and inactive are the calls of the source.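 Rule for the calls: active = plate Z score at or below -3, or inhibition of at least 30% at 20 µM; inactive = the rest.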

The nature of the test: EGFP reporter destabilization counter-screen – F442A EGFP cells, fluorescence, counter-screen for p/CIP destabilizer project, dose response (AID 2005).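 Note: cells express EGFP alone from a CMV promoter as a counter screen for p/CIP-EGFP.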 The conditions noted are these: F442A EGFP cells, EGFP fluorescence, 16 h, stronger effect = higher value. (The purpose of a counterscreen is to sort out artefacts and off-target activity.)

Consider `Cc1ccc(Cn2c(SCC(C)C)nc3c2c(=O)[nH]c(=O)n3C)cc1`, for which the inhibition – broadly, the relative decrease from the control value, in per cent – (EGFP decrease, at 10 µM) came out at 6.3% and the inhibition (at 20 µM) was 20.7% (inactive).
As for `Cc1cc(=O)[nH]c(SCC(=O)O)c1C#N`, the inhibition is, setting by setting: (EGFP decrease, at 10 µM) 24%; (at 20 µM) 10.9% (inactive).
Take `Cc1ccc2nc(-c3ccc(S(=O)(=O)N4CCOCC4)cc3)cn2c1`: the inhibition runs as follows: (EGFP decrease, at 10 µM) 14.7%; (at 20 µM) 6.1% (inactive).
Consider `Cn1c(SCc2ccc(C#N)cc2)nnc1-c1ccccc1`, for which the inhibition is 18.5% (EGFP decrease, at 10 µM) and -12.9% (inactive) (at 20 µM).
On to `CC(C(=O)N1c2ccccc2CCc2ccccc21)n1nnc(-c2ccc(N(C)C)cc2)n1` (stereo not given), for which the inhibition is 15.2% (EGFP decrease, at 10 µM) and 6.8% (inactive) (at 20 µM).
`CCOC(=O)C(OC(=O)c1sc(=S)n(C)c1C)C(C)=O` (stereo not given): the inhibition runs as follows: (EGFP decrease, at 10 µM) 27.1%; (at 20 µM) 35.7%.
On to `CCCNC(=O)Cn1c(=O)oc2ccccc21`, for which the inhibition is -20.6% (EGFP decrease, at 10 µM) and 8.8% (inactive) (at 20 µM).
For `CC1CC(C)CN(C(=O)C2CCN(S(=O)(=O)c3cccs3)CC2)C1` (stereo not given), the inhibition (EGFP decrease, at 10 µM) was determined as 1.5% and the inhibition (at 20 µM) is 8.5% (inactive).
Taken in the same sequence, the figures for `CC(C)c1ccc(NC(=S)NN2C(C)CCCC2C)cc1` (stereo not given) were 8.5% and 0.8% (inactive).
Take `COC(=O)Cn1cc(C(=O)c2cccs2)c2ccccc21`: the inhibition (EGFP decrease, at 10 µM) is 27.1% and the inhibition (at 20 µM) is 14.5% (inactive).
Turning to `COc1ccc(OC)c(NS(=O)(=O)c2c(C(=O)N3CCCCCC3)c(C)n(C)c2C)c1`, the inhibition by setting is: (EGFP decrease, at 10 µM) 32.8%; (at 20 µM) 15.9% (inactive).
Taken in the same sequence, the figures for `CCNS(=O)(=O)c1ccc(OC)c(C(=O)NC2CCCCC2)c1` were 1.8% and 27.8% (inactive).
As to `CCC(Cc1ccccc1)NC(=O)Cn1cccc1C(=O)c1ccccc1` (stereo not given), the inhibition is 9.1% (EGFP decrease, at 10 µM) and 15.9% (inactive) (at 20 µM).
As for `O=C(CN1C(=O)c2ccccc2C1=O)N(CCO)Cc1ccccc1`, the inhibition (EGFP decrease, at 10 µM) is -7.7% and the inhibition (at 20 µM) was 16% (inactive).
Consider `COc1ccc(CCNC(=O)c2ccncc2)cc1OC`, for which the inhibition was -3.3% (EGFP decrease, at 10 µM) and 20.8% (inactive) (at 20 µM).
As to `CC(=O)c1ccc(NC(=O)NNS(=O)(=O)c2ccc([N+](=O)[O-])cc2)cc1`, the inhibition is, setting by setting: (EGFP decrease, at 10 µM) 16.8%; (at 20 µM) 22.1% (inactive).
On to `COc1ccccc1-c1cn[nH]c(=S)n1`, for which the inhibition is, setting by setting: (EGFP decrease, at 10 µM) 24.4%; (at 20 µM) 8.7% (inactive).
Taken in the same sequence, the figures for `Cc1ccc(NC(=O)N2CCCC2C(=O)NCc2ccc3c(c2)OCO3)cc1` (stereo not given) were -10.4% and -0.3% (inactive).
Consider `COc1ccc(CNCCCSc2ncccn2)c(OC)c1`, for which the inhibition is 11.1% (EGFP decrease, at 10 µM) and 16.3% (inactive) (at 20 µM).
Regarding `CCOC(=O)CCc1c(C)c2ccc(OCC(=O)N(CC)CC)c(C)c2oc1=O`, the inhibition by setting is: (EGFP decrease, at 10 µM) 19.9%; (at 20 µM) 8.8% (inactive).
In the case of `O=C(CN1CCCCC1)N/N=C/c1cccc(Cl)c1`, the inhibition is 13.5% (EGFP decrease, at 10 µM) and 17.4% (inactive) (at 20 µM).
Regarding `CCc1ccc(CN2CCC(n3nccc3NC(=O)c3ccccc3C)CC2)cc1`, the inhibition runs as follows: (EGFP decrease, at 10 µM) 22.7%; (at 20 µM) -0.4% (inactive).
For the compound `Cc1nnc(NC(=O)CSc2nccn2Cc2ccc(F)cc2)s1`, the inhibition was 22.4% (EGFP decrease, at 10 µM) and 16.3% (inactive) (at 20 µM).
For `O=C(CCCn1c(=O)c2cccn2c2cccnc21)NCc1cccc(Br)c1`, the inhibition is, setting by setting: (EGFP decrease, at 10 µM) -13.6%; (at 20 µM) 2.1% (inactive).
As for `Cc1ccc(S(=O)(=O)N/N=C(\c2ccccc2)c2cccnc2)cc1`, the inhibition reads like this: (EGFP decrease, at 10 µM) 5.5%; (at 20 µM) 21.7% (inactive).
Taken in the same sequence, the figures for `CC1CN(C(=O)c2cn3ccccc3n2)CC(C)O1` (stereo not given) were 9.8% and 22.5% (inactive).
As for `S=C(NNC(=S)Nc1ccccc1)Nc1ccccc1`, the inhibition runs as follows: (EGFP decrease, at 10 µM) -6.9%; (at 20 µM) 16.7% (inactive).
Turning to `CCc1ccc(NC(=S)N2CCC(NC(=O)c3ccccc3OC)CC2)cc1`, the inhibition (EGFP decrease, at 10 µM) was -7.8% and the inhibition (at 20 µM) is 5.4% (inactive).
As to `Cn1c(NC(=O)c2cccnc2)nc2ccccc21`, the inhibition by setting is: (EGFP decrease, at 10 µM) -33.6%; (at 20 µM) -0.5% (inactive).
As to `Cn1nnnc1SCC(=O)c1cccs1`, the inhibition runs as follows: (EGFP decrease, at 10 µM) 11.4%; (at 20 µM) 9.9% (inactive).
As for `Cc1ccc(-c2nnc(CSc3nc(C)nc4sc(C)c(C)c34)o2)cc1`, the inhibition (EGFP decrease, at 10 µM) came out at 12.1% and the inhibition (at 20 µM) is 14.3% (inactive).
With `CCOC(=O)N1CCC(NC(=O)C2CCCN(S(=O)(=O)c3cccc4nsnc34)C2)CC1` (stereo not given), the inhibition reads like this: (EGFP decrease, at 10 µM) 11%; (at 20 µM) 19% (inactive).
As for `CC1CC(C)CN(c2ccc(NS(=O)(=O)c3ccccc3)cc2C(=O)O)C1` (stereo not given), the inhibition is, setting by setting: (EGFP decrease, at 10 µM) 9.8%; (at 20 µM) 2.9% (inactive).
On the same counts, the results for `CCN1CCN(CCNC(=O)Nc2ccc([N+](=O)[O-])cc2)CC1` are -0.7% and 6.6% (inactive).
Turning to `CC(C)CN(C(=O)c1cccc(F)c1)c1c(N)n(CC(C)C)c(=O)[nH]c1=O`, the inhibition reads like this: (EGFP decrease, at 10 µM) 32.3%; (at 20 µM) 18.5% (inactive).
Taken in the same sequence, the figures for `COc1cccc(-c2nc(CS(=O)CC(=O)NCc3ccccc3)c(C)o2)c1` (stereo not given) were 19.6% and -13.3% (inactive).
With `COc1ccc([N+](=O)[O-])cc1NC(=O)c1cccs1`, the inhibition (EGFP decrease, at 10 µM) amounted to 18.4% and the inhibition (at 20 µM) was 8.7% (inactive).
On to `O=C(NC1=NCCS1)c1ccc(N2CCCC2=O)cc1`, for which the inhibition by setting is: (EGFP decrease, at 10 µM) -10.3%; (at 20 µM) -1.1% (inactive).
Consider `Cc1cc(N2C(=O)C(O)=C(C(=O)c3ccco3)C2c2ccc([N+](=O)[O-])cc2)no1` (stereo not given), for which the inhibition by setting is: (EGFP decrease, at 10 µM) 39.5%; (at 20 µM) 4.5% (inactive).
Take `CCN1CCN(c2cc(C)c3cc(NC(=S)N4CC(C)CC(C)C4)ccc3n2)CC1` (stereo not given): the inhibition by setting is: (EGFP decrease, at 10 µM) 28.8%; (at 20 µM) 12.7% (inactive).
As for `COCCN(CC(=O)NC1CCCCC1)C(=O)CSc1nc2ccccc2o1`, the inhibition is 7.4% (EGFP decrease, at 10 µM) and 28.7% (inactive) (at 20 µM).
For the compound `COc1ccc(NC(=O)N2CCn3c2nc2ccccc23)cc1`, the inhibition is, setting by setting: (EGFP decrease, at 10 µM) 17.9%; (at 20 µM) 30.9%.
`COc1ccc(-n2ncc3c(SCC(=O)N4CCN(c5ccccc5OC)CC4)ncnc32)cc1`: the inhibition was 17.1% (EGFP decrease, at 10 µM) and 9.4% (inactive) (at 20 µM).
Turning to `O=C(CSc1ccc(Cl)cc1)OCc1nnc(-c2ccccc2)o1`, the inhibition (EGFP decrease, at 10 µM) was 7.2% and the inhibition (at 20 µM) is 13.1% (inactive).
`NC(=O)C1CCCCc2c1[nH]c1ccc(Cl)cc21` (stereo not given): the inhibition is, setting by setting: (EGFP decrease, at 10 µM) 16.2%; (at 20 µM) 7.6% (inactive).
As for `COc1ccccc1NC(=O)CSc1nncn1-c1cccnc1`, the inhibition reads like this: (EGFP decrease, at 10 µM) 4.7%; (at 20 µM) 8% (inactive).
For `CS(=O)(=O)c1ccc(S(=O)CC(=O)OCc2ccccc2)c([N+](=O)[O-])c1` (stereo not given), the inhibition (EGFP decrease, at 10 µM) was found to be 16% and the inhibition (at 20 µM) was -0.6% (inactive).
Consider `COc1ccc(N2CCN(C(=O)CNS(=O)(=O)c3ccc(Br)s3)CC2)cc1`, for which the inhibition (EGFP decrease, at 10 µM) was found to be 31% and the inhibition (at 20 µM) was 28.5% (inactive).
`COc1cccc(-c2noc(-c3ccc(Cl)nc3)n2)c1`: the inhibition was -8.2% (EGFP decrease, at 10 µM) and -3.6% (inactive) (at 20 µM).
Taken in the same sequence, the figures for `CCCC(=O)Nn1cnc2c(c1=O)C1(CCCCC1)Cc1ccccc1-2` were -8.7% and 4% (inactive).
Turning to `Cc1ccc(S(=O)(=O)NCC(C)NS(=O)(=O)c2ccc(C)cc2)cc1` (stereo not given), the inhibition runs as follows: (EGFP decrease, at 10 µM) 34.7%; (at 20 µM) -7.7% (inactive).
With `Cc1ccc(NC(=O)CC2C(=O)NC3CCCCC3N2C(=O)c2ccc(F)cc2)cc1C` (stereo not given), the inhibition (EGFP decrease, at 10 µM) amounted to 12.9% and the inhibition (at 20 µM) was 24.7% (inactive).
Consider `O=C(Nc1nc2nc(-c3ccccc3)cc(-c3ccccc3)n2n1)c1ccco1`, for which the inhibition was 4.8% (EGFP decrease, at 10 µM) and 5.5% (inactive) (at 20 µM).
With `CCOC(=O)N1CCC(NC(=O)Cn2nc(-c3ccccc3)ccc2=O)CC1`, the inhibition was 1.1% (EGFP decrease, at 10 µM) and 24.5% (inactive) (at 20 µM).
Turning to `Cc1ccc(CNC(=O)C2CCCCN2S(=O)(=O)c2ccccc2)cc1` (stereo not given), the inhibition was -17.4% (EGFP decrease, at 10 µM) and 4.6% (inactive) (at 20 µM).
Turning to `CCCCN(Cc1ccccc1)S(=O)(=O)c1ccc2[nH]c(=O)oc2c1`, the inhibition reads like this: (EGFP decrease, at 10 µM) 7.9%; (at 20 µM) 11.8% (inactive).
Turning to `Cc1ccc2[nH]c3c(c2c1)CCCC3=O`, the inhibition was 28.5% (EGFP decrease, at 10 µM) and 27.9% (inactive) (at 20 µM).
On to `Cc1ccc(S(=O)(=O)N(C)c2ccc(C(=O)NCc3cccnc3)cc2)cc1`, for which the inhibition runs as follows: (EGFP decrease, at 10 µM) -13.7%; (at 20 µM) -8.4% (inactive).
For the compound `CC1CC(C)CN(C(=O)c2ccc3c(c2NCCO)C(=O)c2ccccc2C3=O)C1` (stereo not given), the inhibition by setting is: (EGFP decrease, at 10 µM) 12.8%; (at 20 µM) 7.9% (inactive).
Taken in the same sequence, the figures for `CCCc1sc(N/N=C/c2ccccn2)nc1-c1ccc(F)cc1` were 20.3% and 20.4% (inactive).
For `O=C(CC12CC3CC(CC(C3)C1)C2)NCCN1CCOCC1`, the inhibition reads like this: (EGFP decrease, at 10 µM) 9.3%; (at 20 µM) 25.4% (inactive).
In the case of `COc1ccc(/C=C/C(=O)Nc2cccc(N3CCOCC3)c2)cc1OC`, the inhibition by setting is: (EGFP decrease, at 10 µM) -4.5%; (at 20 µM) 6.7% (inactive).
Take `Cc1nc(NC(=O)CN2CCN(c3ccccc3F)CC2)sc1C(=O)N(C)C`: the inhibition by setting is: (EGFP decrease, at 10 µM) 17%; (at 20 µM) 24.4% (inactive).
As for `O=C(CN(CCc1ccccc1)C(=O)CNS(=O)(=O)c1ccccc1)NCC1CCCO1` (stereo not given), the inhibition by setting is: (EGFP decrease, at 10 µM) 25.6%; (at 20 µM) 23.8% (inactive).
Consider `COc1c[nH]n(C2CCCCC2)c(=O)c1=O`, for which the inhibition by setting is: (EGFP decrease, at 10 µM) 6.1%; (at 20 µM) -8.9% (inactive).
